Assay results taken from ChEMBL document CHEMBL1152022, “Double-headed molecules based on linear or angular psoralen and -methylene--butyrolactone: a search for non-phototoxic potential antiproliferative compounds” (Bioorg Med Chem Lett, 1993).
Active and inactive are the calls of the source. The calls are words filed in the database; no cut-off is given here.

Experiments:
Assay type in all cases: functional, organism-based
[1] = organism: Mus musculus; experiment: Phototoxicity was evaluated at a concentration of 27.7 mM at a UVA dose of 12 J/cm**2 in mouse ear-swelling test; non-phototoxic
[2] = organism: Mus musculus; experiment: Phototoxicity was evaluated at a concentration of 1.4 mM and with an irradiation dose of 6 J/cm**2 in mouse ear-swelling test; non-phototoxic
[3] = organism: Mus musculus; experiment: Phototoxicity was evaluated at a concentration of 13.9 mM and a UVA dose of 10 J/cm**2 in mouse ear-swelling test; non-phototoxic
[4] = organism: Mus musculus; experiment: Phototoxicity was evaluated at a concentration of 1.4 mM and with an irradiation dose of 6 J/cm**2 in mouse ear-swelling test; induced marked erythema.

C=C1CC(CCCCCCCCCCOc2c3ccoc3cc3oc(=O)ccc23)OC1=O (centres undefined)
Phototoxicity [1]: Not toxic | Phototoxicity [2]: Not toxic

C=C1CC(CCCCCCCCCCc2cc3c(ccc4ccc(=O)oc43)o2)OC1=O (centres undefined)
Phototoxicity [3]: Not toxic

COc1c2ccoc2cc2oc(=O)ccc12
Phototoxicity [4]: Active
